{"source": "patent US20250332131A1", "about": "“COMPOSITION FOR ACTIVATING NICOTINAMIDE PHOSPHORIBOSYLTRANSFERASE” (Yuki Gosei Kogyo Co., Ltd., priority 2024, published 2025)", "system": "miRNA contained in exosomes secreted from C2C12 cells", "conditions": "ratio of 1.5 or more compared to the control and signal value exceeding 100; Table 1, FIG. 5", "protocol": "In this example, miRNA in exosomes was analyzed by microarray.\nThe exosome solution purified in Example 2 was used for microarray analysis. The microarray experiment was outsourced to Kamakura Techno Science (Kanagawa, Japan). Based on the data obtained, samples with a ratio of 1.5 or more compared to the control and with either of the two samples with a signal value exceeding 100 were extracted as miRNAs with altered transcription levels."}
{"compound": "NCCC(=O)O", "note": "[β-alanine, 3-aminopropanoic acid]", "values": [{"measurement": "miRNA increased in exosomes of C2C12 cells", "value": "six RNAs were increased"}]}
